Legend:
human skin tissue = test: Bonding of human skin tissue, histotoxicity/cytotoxicity
[1] = used as suture supplements or internally; site of application; cited from earlier work

C=C(C#N)C(=O)OCCCC [n-butyl cyanoacrylate, n-butyl-2-cyanoacrylate]
Histotoxicity or cytotoxicity on bonding human skin tissue (human skin tissue): without causing histoxicity or cytotoxicity
Time after application at which polymeric residue was still observed by histological examination [1]: ≤ 12 months

Reference: patent US6342213B1, “Methods for treating non-suturable wounds by use of cyanoacrylate adhesives” (MedLogic Global Corporation, priority 1992, dated 2002)
